From US9603793B2, “Nano / micro bubbles for drug delivery” (National Tsing Hua University, priority 2014, dated 2017)

Experiments:
cells = assay: Cell images of cells co-cultured with the components (FITC-insulin transmission); assay type: cell-based; settings: cells co-cultured with the component; stained with Cld 4, E-cadherin and DAPI; FIG. 3
[1] = Pharmacokinetic test of nano/micro bubbles (plasma insulin and blood glucose); assay type: in vivo; settings: subcutaneous injection of insulin 5 IU/kg; 0 to 10 hours; FIG. 5b
Protocol: Pharmacokinetic Test of Nano/Micro Bubbles In the present example, groups comprising nano/micro bubbles of the present invention (containing 30 IU/kg of insulin), oral administration (30 IU/kg of insulin) and subcutaneous injection of insulin (5 IU/kg) are compared. The change rates in plasma insulin and blood glucose concentration from 0 to 10 hours after subjects taking insulin or injected with insulin were recorded respectively, and the results are illustrated in FIGS. 5a and 5b.

Compound	transmission of FITC-insulin (paracellular / transcellular pathway) (cells)	change rate of the blood glucose [1]
O=C(O)CN(CCN1CC(=O)OC(=O)C1)CCN1CC(=O)OC(=O)C1 [DTPA dianhydride, diethylenetriaminepentaacetic dianhydride]	can promote transmission of FITC-insulin via paracellular pathway	–
CCCCCCCCCCCCOS(=O)(=O)[O-].[Na+] [SDS, sodium dodecyl sulfate]	can promote transmission of FITC-insulin via both of paracellular pathway and transcellular pathway	–
insulin	–	rapidly declined and rose again
